Where a name gives a salt, the structure may show the parent alone.
Assays:
[1] = Subject-reported flushing severity (GFSS, FSS); details: 325 mg non-enteric coated aspirin 30 minutes prior to DMF dosing, healthy volunteer study
Description: (§1) A randomized, double-blind, placebo-controlled study in healthy adult volunteers was conducted in which a total of 56 subjects were randomized to receive 4 days' treatment with DMF 240 mg BID, DMF 240 mg TID, DMF 360 mg BID or placebo, with aspirin 325 mg or matching aspirin placebo administered 30 minutes before each DMF or DMF placebo dose. An additional 8 patients were assigned to a modified dosing group receiving DMF 120 mg or placebo 6 times daily (3 doses at hourly intervals in the morning and a further 3 doses at hourly intervals in the evening). There were 6 subjects per group, except for the modified dosing regimen, where an additional 2 subjects were assigned to placebo.
(§2) Flushing severity was assessed by 2 validated subject-reported measures, the global Flushing Severity Scale (GFSS) and the Flushing Severity Scale (FSS), which are adapted from the flushing scale described in Norquist J M, et al. Curr Med Res Opin 23:1547-1560 (2007). Both of these measures rate flushing severity on a scale of 0-10, where 0=no flushing, 1-3=mild flushing, 4-6=moderate flushing, 7-9=severe flushing, and 10=extreme flushing. The GFSS is a visual-analogue scale measuring redness, warmth, tingling and itching of the skin experienced over the preceding 24 h. Subjects completed the GFSS immediately before the first dose of study drug (0 h) on days 1 to 4, again at 0 h on day 5 and once more at follow-up on day 11. On the FSS, subjects rated their overall flushing and 4 items describing specific flushing symptoms (redness, warmth, tingling, itching) at the time of administration of the questionnaire. The FSS scale was administered at 16 time points over 12 h (Hours 0, 0.5, 1, 1.5, 2, 2.5, 3, 4, 5, 6, 7, 8, 9, 10, 11, 12) on days 1 to 4 and once on day 5 (24 h after the first day 4 dose) to assess the quality and intensity of subject-reported flushing symptoms in real time. Subjects rated 5 items relating only to the period since they last answered the questionnaire and/or received study drug.

[2] = Laser Doppler perfusion of facial skin during flushing; format: in vivo, human; details: aspirin pretreatment before DMF
Description: Laser Doppler perfusion was used as an exploratory quantitative measure of facial skin perfusion during flushing. This technique uses non-invasive imaging of superficial tissue blood perfusion, recorded as Blood Perfusion Units on a relative units scale. Laser Doppler perfusion was measured at the same 16 timepoints as the FSS.

[3] = PK of DMF with or without aspirin in healthy adult volunteers, plasma MMF; format: in vivo, human; details: aspirin 325 mg 30 minutes before each DMF dose
Description: The concentration of MMF was determined by high pressure liquid chromatography with tandem mass spectrometry, using […] as the internal standard. Further pharmacokinetic parameters were derived by non-compartmental analysis

[4] = human, in vivo
Description: as §1, §2

CC(=O)Oc1ccccc1C(=O)O [aspirin]
occurrence and severity of flushing [1]: reduce the occurrence and severity of flushing | magnitude of Doppler perfusion response [2]: decreased | effect of aspirin pretreatment on MMF concentration-time profiles [3]: no apparent effect

COC(=O)/C=C/C(=O)OC [DMF, dimethyl fumarate]
flushing severity on the FSS [4]: mild to moderate | mean GFSS score ([4]; 2 day): 1.5-3.5

— patent US20130216615A1, “Pharmaceutical Compositions Containing Dimethyl Fumarate” (priority 2012, published 2013)
